Measurements from PubChem BioAssay AID330 (DTP/NCI, 2004).
Several values for one entry are separate records, joined by “and”; a condition that tells them apart may be missing. Equal entries are not always repeated. Inconclusive results and toxic doses are left out.

System: P388 leukemia ip, CD2F1 mice, survival T/C
Test: NCI In Vivo Anticancer Drug Screen. Data for tumor model P388 Leukemia (intraperitoneal) in CD2F1 (CDF1) mice
Conditions: endpoint: median survival time, higher = longer survival
How it was run: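 Mice carrying the transplanted tumor received test compound or vehicle. Survival was recorded in each group, and the value is the treated-group measurement divided by that of the vehicle-treated control group.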

`CC1OC(=O)C(C(C)C)NC(=O)C(C(C)C)OC(=O)C(C(C)C)NC(=O)C(C)OC(=O)C(C(C)C)NC(=O)C(C(C)C)OC(=O)C(C(C)C)NC(=O)C(C)OC(=O)C(C(C)C)NC(=O)C(C(C)C)OC(=O)C(C(C)C)NC1=O` (stereo unspecified) was tested, and the T/C (dose: 0.03 mg/kg/injection, schedule: Q01DX009 (ip), vehicle: other) was 113 % of control, the T/C (dose: 0.1 mg/kg/injection, schedule: Q01DX005 (ip), vehicle: DMSO) was 110 % of control and the T/C (dose: 0.1 mg/kg/injection, schedule: Q01DX005 (ip), vehicle: other) was 108 % of control. The T/C (dose: 0.12 mg/kg/injection, schedule: Q01DX009 (oral), vehicle: other) was 102 % of control, the T/C (dose: 0.2 mg/kg/injection, schedule: Q01DX005 (ip), vehicle: DMSO) was 116 % of control and the T/C (dose: 0.2 mg/kg/injection, schedule: Q01DX005 (ip), vehicle: other) was 110 % of control. For the same compound, the T/C (dose: 0.23 mg/kg/injection, schedule: Q01DX009 (oral), vehicle: other) was 96 % of control, the T/C (dose: 0.25 mg/kg/injection, schedule: Q01DX009 (ip), vehicle: other) was 154 % of control and the T/C (dose: 0.4 mg/kg/injection, schedule: Q01DX005 (ip), vehicle: other) was 120 % of control. The T/C (dose: 0.47 mg/kg/injection, schedule: Q01DX009 (ip), vehicle: Klucel (hydroxypropylcellulose) (HPC)) was 155 % of control, the T/C (dose: 0.47 mg/kg/injection, schedule: Q01DX009 (oral), vehicle: other) was 98 % of control and the T/C (dose: 0.5 mg/kg/injection, schedule: Q01DX009 (ip), vehicle: Klucel (hydroxypropylcellulose) (HPC)) was 116 % of control. The T/C (dose: 0.5 mg/kg/injection, schedule: Q01DX009 (ip), vehicle: other) was 100 % of control, the T/C (dose: 0.62 mg/kg/injection, schedule: Q01DX009 (ip), vehicle: saline) was 111 % of control and 97 % of control and the T/C (dose: 0.94 mg/kg/injection, schedule: Q01DX009 (oral), vehicle: Klucel (hydroxypropylcellulose) (HPC)) was 103 % of control. The T/C (dose: 0.94 mg/kg/injection, schedule: Q01DX009 (oral), vehicle: other) was 93 % of control, the T/C (dose: 1.0 mg/kg/injection, schedule: Q01DX005 (ip), vehicle: Klucel (hydroxypropylcellulose) (HPC)) was 155 % of control and the T/C (dose: 1.25 mg/kg/injection, schedule: Q01DX009 (ip), vehicle: saline) was 94 % of control. The T/C (dose: 1.88 mg/kg/injection, schedule: Q01DX009 (ip), vehicle: Klucel (hydroxypropylcellulose) (HPC)) was 161 % of control, the T/C (dose: 1.88 mg/kg/injection, schedule: Q01DX009 (oral), vehicle: Klucel (hydroxypropylcellulose) (HPC)) was 108 % of control and the T/C (dose: 2.0 mg/kg/injection, schedule: Q01DX005 (ip), vehicle: Klucel (hydroxypropylcellulose) (HPC)) was 165 % of control. For the same compound, the T/C (dose: 2.5 mg/kg/injection, schedule: Q01DX009 (ip), vehicle: saline) was 87 % of control and 94 % of control, the T/C (dose: 3.75 mg/kg/injection, schedule: Q01DX009 (oral), vehicle: Klucel (hydroxypropylcellulose) (HPC)) was 106 % of control and the T/C (dose: 4.0 mg/kg/injection, schedule: Q01DX005 (ip), vehicle: Klucel (hydroxypropylcellulose) (HPC)) was 160 % of control and 162 % of control. The T/C (dose: 5.0 mg/kg/injection, schedule: Q01DX009 (ip), vehicle: Klucel (hydroxypropylcellulose) (HPC)) was 162 % of control, the T/C (dose: 5.0 mg/kg/injection, schedule: Q01DX009 (ip), vehicle: saline with Tween-80) was 106 % of control and the T/C (dose: 5.0 mg/kg/injection, schedule: Q01DX009 (ip), vehicle: saline) was 87 % of control and 93 % of control. The T/C (dose: 7.5 mg/kg/injection, schedule: Q01DX009 (ip), vehicle: Klucel (hydroxypropylcellulose) (HPC)) was 88 % of control, the T/C (dose: 7.5 mg/kg/injection, schedule: Q01DX009 (oral), vehicle: Klucel (hydroxypropylcellulose) (HPC)) was 88 % of control and the T/C (dose: 8.0 mg/kg/injection, schedule: Q01DX005 (ip), vehicle: Klucel (hydroxypropylcellulose) (HPC)) was 159 % of control and 162 % of control. The T/C (dose: 10.0 mg/kg/injection, schedule: Q01DX009 (ip), vehicle: Klucel (hydroxypropylcellulose) (HPC)) was 97 % of control, the T/C (dose: 10.0 mg/kg/injection, schedule: Q04DX003 (ip), vehicle: saline with Tween-80) was 151 % of control and 167 % of control and the T/C (dose: 16.0 mg/kg/injection, schedule: Q01DX005 (ip), vehicle: Klucel (hydroxypropylcellulose) (HPC)) was 163 % of control. For the same compound, the T/C (dose: 20.0 mg/kg/injection, schedule: Q04DX003 (ip), vehicle: saline with Tween-80) was 108 % of control, the T/C (dose: 6.25 micrograms/kg/injection, schedule: Q03HX008 (ip), vehicle: other) was 101 % of control and the T/C (dose: 6.25 micrograms/kg/injection, schedule: Q03HX020 (ip), vehicle: other) was 118 % of control. For the same compound, the T/C (dose: 6.25 micrograms/kg/injection, schedule: Q12HX004 (iv), vehicle: other) was 101 % of control, the T/C (dose: 6.25 micrograms/kg/injection, schedule: Q12HX010 (ip), vehicle: other) was 111 % of control and the T/C (dose: 6.25 micrograms/kg/injection, schedule: Q12HX010 (iv), vehicle: other) was 102 % of control. For the same compound, the T/C (dose: 12.5 micrograms/kg/injection, schedule: Q01DX001 (iv), vehicle: other) was 97 % of control and the T/C (dose: 12.5 micrograms/kg/injection, schedule: Q01DX005 (ip), vehicle: other) was 103 % of control and 107 % of control.
